Experimental data reported in patent US20240400547A1, “2,6-PIPERIDINEDIONE COMPOUND AND APPLICATION THEREOF” (MEDSHINE DISCOVERY INC., priority 2021, published 2024).
Counter-ions that a name gives are not always drawn.

Assays:
IRAK4 = molecular target: T1, IRAK4 (Homo sapiens, UniProt Q9NWZ3); assay: Target protein degradation in K562 IRAK4-HiBiT cells (Nano-Glo HiBiT); type: cell-based; details: 16 to 18 hours; for Dmax: read-out: Maximum degradation rate
T1 construct: expressed in transfected cells; host or cells: K562 IRAK4-HiBiT cells
T1 sequence (Q9NWZ3 1-460): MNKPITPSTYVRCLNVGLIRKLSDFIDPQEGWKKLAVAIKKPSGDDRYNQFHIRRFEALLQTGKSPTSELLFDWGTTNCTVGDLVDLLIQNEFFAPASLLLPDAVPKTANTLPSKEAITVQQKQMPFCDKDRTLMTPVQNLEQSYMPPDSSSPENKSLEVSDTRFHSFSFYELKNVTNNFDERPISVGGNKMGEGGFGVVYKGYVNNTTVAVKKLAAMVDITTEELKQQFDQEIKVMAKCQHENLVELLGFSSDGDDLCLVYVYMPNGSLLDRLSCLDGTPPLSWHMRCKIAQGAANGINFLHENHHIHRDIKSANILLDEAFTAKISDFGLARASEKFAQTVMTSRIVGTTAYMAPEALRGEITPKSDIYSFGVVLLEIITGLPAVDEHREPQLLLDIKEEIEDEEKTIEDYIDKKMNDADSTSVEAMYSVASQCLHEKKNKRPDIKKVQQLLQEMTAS
Protocol: Experimental objective: The experiment aims to evaluate the degradation effect of the test compounds on the target protein IRAK4 in K562 IRAK4-HiBiT cells.
• Cells: K562 IRAK4-HiBiT cells • Culture medium: RPMI 1640+10% fetal bovine serum+2 mM glutamine+1 mM sodium pyruvate+penicillin/streptomycin. • Positive control: 1000 nM; negative control: 0.1% DMSO.
• (1). The powder of the compound to be tested was dissolved in DMSO to a storage concentration of 10 mM. A total of 9 μL of the 10 mM of the compound to be tested was manually pipetted into the 1st and 13th columns of the LDV plate using a pipettor; • (2). A volume of 6 μL of DMSO was added to columns 2-12 and 14-24 using a Multidrop Combi; • (3). A 3-fold dilution of the test compounds (3 μL+6 μL) was performed using Bravo, for columns 1-11 and 13-23; • (4). According to the plate layout, 25 nL of compound solution (columns 1-24 of the LDV plate) was transferred to the experimental plate using Echo; • (5) 25 nL of the 1 mM positive control solution was transferred to the assay plate as a 100% degradation control (i.e. LC, HPE), and 25 nL of DMSO was transferred to the assay plate as a 0% control (i.e. HC, ZPE).
• (1) The culture medium was discarded, and the cells were washed once with DPBS, digested with trypsin, counted, and prepared into a cell suspension of […]. • (2) Using the MultiDrop Combi at a medium speed, 25 μL/well of the cell suspension was added to the experimental plate containing the test compounds; • (3) The experimental plate containing cells was returned to the incubator and cultured for 16 to 18 hours at 37° C. and 5% CO2.
• (1). Using the MultiDrop Combi at a high speed, 25 μL/well of the assay reagent (NanoGlo lytic solution+substrate+LgBit protein) was added to the assay plate, followed by shaking for 10 minutes; • (2) The plate was centrifuged at 2000 rpm for 1 minute to remove any bubbles; • (3) Readings were obtained by using an Envision, US Luminescence reader.
To calculate the degradation rate (DR) of the test compounds, the following formula is used: IR (%)=(RLU vehicle control−RLU compound)/(RLU vehicle control−RLU positive control)×100%. The solvent control refers to the blank control. The degradation rates of compounds at different concentrations were calculated in Excel, and then XLFit software was used to plot inhibition curves and calculate relevant parameters, including minimum degradation rate, maximum degradation rate, and DC50.

IKZF1 = molecular target: T2, IKZF1 (Homo sapiens, UniProt Q13422+Q96SW2); assay: In Cell Western of IKZF1 protein expression level in MM.1S cells; type: cell-based; details: IKZF1, MM.1S cells, 24 hours; for Dmax: MM1.S, read-out: Maximum degradation rate Dmax
T2 construct: host or cells: MM.1S cells
T2 sequence (Q13422 whole entry): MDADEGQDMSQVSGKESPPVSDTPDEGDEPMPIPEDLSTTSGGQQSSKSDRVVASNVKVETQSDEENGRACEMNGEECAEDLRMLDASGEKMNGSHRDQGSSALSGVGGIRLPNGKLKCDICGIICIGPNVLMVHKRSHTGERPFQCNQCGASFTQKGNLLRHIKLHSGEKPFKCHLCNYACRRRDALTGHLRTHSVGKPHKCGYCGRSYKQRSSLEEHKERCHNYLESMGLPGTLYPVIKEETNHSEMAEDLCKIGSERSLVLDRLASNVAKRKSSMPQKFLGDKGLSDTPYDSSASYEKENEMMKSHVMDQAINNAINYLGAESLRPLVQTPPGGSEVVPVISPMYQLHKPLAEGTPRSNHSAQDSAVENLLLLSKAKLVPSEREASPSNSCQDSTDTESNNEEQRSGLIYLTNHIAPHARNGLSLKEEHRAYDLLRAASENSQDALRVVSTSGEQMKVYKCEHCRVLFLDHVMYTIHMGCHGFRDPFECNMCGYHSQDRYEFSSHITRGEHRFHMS
T2 sequence (Q96SW2 whole entry): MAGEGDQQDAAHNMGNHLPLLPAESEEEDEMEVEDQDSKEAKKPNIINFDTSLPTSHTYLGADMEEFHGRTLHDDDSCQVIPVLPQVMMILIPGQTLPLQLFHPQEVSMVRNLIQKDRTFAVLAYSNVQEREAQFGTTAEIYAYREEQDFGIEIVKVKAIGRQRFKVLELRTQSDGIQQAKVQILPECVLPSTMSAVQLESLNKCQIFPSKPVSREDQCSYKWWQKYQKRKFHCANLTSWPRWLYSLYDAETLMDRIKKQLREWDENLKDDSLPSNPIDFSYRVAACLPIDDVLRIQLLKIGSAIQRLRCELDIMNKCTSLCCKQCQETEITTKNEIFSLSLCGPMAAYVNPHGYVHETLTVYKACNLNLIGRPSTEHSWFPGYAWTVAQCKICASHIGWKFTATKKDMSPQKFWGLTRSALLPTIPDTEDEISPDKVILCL
T2 sequence (Q16531 whole entry partner): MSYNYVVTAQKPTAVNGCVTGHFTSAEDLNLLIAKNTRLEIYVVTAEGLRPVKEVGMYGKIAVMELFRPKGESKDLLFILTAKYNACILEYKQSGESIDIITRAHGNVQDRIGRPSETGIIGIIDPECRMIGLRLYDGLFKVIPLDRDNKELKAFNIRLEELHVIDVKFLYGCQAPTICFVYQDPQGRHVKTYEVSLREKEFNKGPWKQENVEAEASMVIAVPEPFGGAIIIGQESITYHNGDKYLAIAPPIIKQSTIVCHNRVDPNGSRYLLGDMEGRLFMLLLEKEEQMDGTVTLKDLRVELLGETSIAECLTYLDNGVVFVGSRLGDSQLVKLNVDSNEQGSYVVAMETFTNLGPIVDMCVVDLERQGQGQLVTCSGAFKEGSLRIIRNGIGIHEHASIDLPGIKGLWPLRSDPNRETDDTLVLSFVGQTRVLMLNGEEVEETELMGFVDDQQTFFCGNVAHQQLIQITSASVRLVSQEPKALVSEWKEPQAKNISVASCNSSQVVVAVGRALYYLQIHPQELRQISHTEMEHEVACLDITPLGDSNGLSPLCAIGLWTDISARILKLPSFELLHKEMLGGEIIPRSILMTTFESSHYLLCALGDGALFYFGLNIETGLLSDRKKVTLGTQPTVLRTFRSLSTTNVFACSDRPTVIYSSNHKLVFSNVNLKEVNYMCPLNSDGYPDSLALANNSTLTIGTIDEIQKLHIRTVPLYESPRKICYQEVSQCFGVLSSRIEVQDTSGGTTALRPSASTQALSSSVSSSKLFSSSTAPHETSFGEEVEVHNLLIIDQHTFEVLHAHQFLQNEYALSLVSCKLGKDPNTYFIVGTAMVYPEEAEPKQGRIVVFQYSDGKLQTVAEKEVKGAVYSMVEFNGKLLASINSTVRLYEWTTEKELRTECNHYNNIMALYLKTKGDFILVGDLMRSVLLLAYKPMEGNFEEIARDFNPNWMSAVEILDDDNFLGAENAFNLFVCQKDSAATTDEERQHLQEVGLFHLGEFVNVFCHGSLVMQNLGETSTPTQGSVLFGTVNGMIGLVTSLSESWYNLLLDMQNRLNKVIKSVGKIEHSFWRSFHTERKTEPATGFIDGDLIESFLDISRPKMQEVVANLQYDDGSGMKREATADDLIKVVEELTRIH
Protocol: Experimental objective: The experiment aims to assess the degradation effect of the test compounds on IKZF1 and 1KZF3 proteins in MM.1S cells by evaluating the impact of the test compounds on the expression levels of IKZF1 and IZKZF3 proteins in MM.1S cells.
• Cell lines: MMN.1 S cell (sourced from ATCC; Cat. No CRL-2974) • Negative control: 0.100 DMSO.
• 1) Log phase MM.1 S cells were plated in a 96-well plate at 1.2×10^5 cells per well and cultured overnight; • 2) The next day, compounds were added with a starting concentration of 300 nM, diluted threefold across three replicate wells for 10 concentration gradients (including DMSO), and the cells were incubated for 24 hours in an incubator; • 3) The cells were centrifuged, and the supernatant was carefully removed. 150 μL of 4% paraformaldehyde fixative was added along the wall of the wells, avoiding contact with the bottom cells, and the cells were incubated at room temperature for 20 minutes; • 4) Lysis buffer was prepared by mixing 0.5 mL of 10% Triton X-100 with 49.5 mL of PBS until homogenous; • 5) 200 μL of lysis buffer was added along the well walls, again avoiding the bottom cells, and incubated on a shaker at room temperature for 5 minutes; • 6) The wells were washed four times; • 7) 150 μL of Licor […] Blocking Buffer was added along the well walls, avoiding the bottom cells, and the cells were incubated on a shaker at room temperature for 1.5 hours; • 8) Ikaros (D6N9Y) Rabbit mAb, Aiolos (D1C1E) Rabbit mAb and GAPDH mouse mAb (proteintech, 60004-1-Ig) were diluted at a 1:100 ratio using antibody dilution buffer; • 9) 50 μL of mixed antibody was added to each well with three replicate wells, and the cells were incubated overnight on a shaker at 4° C.; • 10) PBST (PBS with 0.1% Tween 20) was prepared; • 11) The primary antibodies were removed, and 200 μL of PBST was added along the well walls, avoiding the bottom cells, and the cells were incubated on a shaker at room temperature for 5 minutes; • 12) The wells were washed four times; • 13) Secondary antibody dilution buffer was prepared by adding Tween 20 to Licor […] Blocking Buffer to a final concentration of 0.2%; • 14) Fluorescent secondary antibodies were diluted in the dark at a 1:800 ratio. To 400 μL of secondary antibody dilution solution, 0.5 μL of each IRDye 800CW and IRDye 680CW (corresponding to the primary antibodies) was added. • 15) 50 μL of the diluted fluorescent secondary antibodies was added to each well and the cells were incubated on a shaker at room temperature in the dark for 60 minutes; • 16) The secondary antibodies were removed, and 200 μL of PBST was added along the well walls, avoiding the bottom cells, and the cells were incubated on a shaker at room temperature in the dark for 5 minutes; • 17) The wells were washed four times; immediately after washing, the Odyssey Gel Imaging System was used for detection at dual wavelengths of 700 nm and 800 nm.
Using GraphPad Prism 6 software, inhibition rate data was entered to fit the curve and calculate the DC50 value.

Row | DC50 (IRAK4) [nM] | Dmax (IRAK4) [%] | DC50 (IKZF1) [nM] | Dmax (IKZF1) [%] | Structure (SMILES)
1 | 4 | 73.9 | 15.7 | 62.9 | CC(C)(O)c1cc2nc(C3CCC(CN4CCN(CC(=O)Nc5cccc6c5ccc5onc(C7CCC(=O)NC7=O)c56)CC4)CC3)sc2cc1NC(=O)c1cccc(C(F)(F)F)n1 (stereo not drawn) [Formate of WX017]
2 | 29.9 | 75.1 | 3.77 | 85.2 | CC(C)(O)c1cc2nc([C@H]3CC[C@H](CN4CCN(CC(=O)Nc5ccc6c(ccc7onc(C8CCC(=O)NC8=O)c76)c5)CC4)CC3)sc2cc1NC(=O)c1cccc(C(F)(F)F)n1 (stereo partly drawn) [Formate of WX020]

Second part, the compound before the results:

Row | Structure (SMILES) | DC50 (IRAK4) [nM] | Dmax (IRAK4) [%] | DC50 (IKZF1) [nM] | Dmax (IKZF1) [%]
3 | O=C1CCC(c2coc3cc(NC(=O)CN4CCN(C[C@H]5CC[C@H](N6CC(NC(=O)c7coc(-c8ccnc(NCC9CC9)c8)n7)C(C(F)F)N6)CC5)CC4)ccc23)C(=O)N1 (stereo partly drawn) [Hydrochloride of WX002] | 13.5 | 100 | – | –
4 | O=C1CCC(c2coc3ccc4c(NC(=O)CN5CCN(C[C@H]6CC[C@H](n7cc(NC(=O)c8coc(-c9ccnc(NCC%10CC%10)c9)n8)c(C(F)F)n7)CC6)CC5)cccc4c23)C(=O)N1 (stereo partly drawn) [Trifluoroacetate of WX011] | 9.6 | 105 | – | –
5 | O=C1CCC(c2noc3c(NC(=O)CN4CCN(C[C@H]5CC[C@H](n6cc(NC(=O)c7coc(-c8ccnc(NCC9CC9)c8)n7)c(C(F)F)n6)CC5)CC4)cccc23)C(=O)N1 (stereo partly drawn) [Hydrochloride of WX028] | 2.11 | – | 26.7 | 49.7
6 | CC(C)(O)c1cc2nc([C@H]3CC[C@H](CN4CCN(CC(=O)Nc5ccc6c(C7CCC(=O)NC7=O)noc6c5)CC4)CC3)sc2cc1NC(=O)c1cccc(C(F)(F)F)n1 (stereo partly drawn) [Formate of WX026] | 0.78 | 80.3 | 5.64 | 84.4
7 | O=C1CCC(c2noc3cc(NC(=O)CN4CCN(C[C@H]5CC[C@H](n6cc(NC(=O)c7coc(-c8ccnc(NCC9CC9)c8)n7)c(C(F)F)n6)CC5)CC4)ccc23)C(=O)N1 (stereo partly drawn) [Hydrochloride of WX025] | 2.53 | 105 | 14.4 | 72.2
8 | O=C1CCC(c2noc3ccc4c(NC(=O)C(F)(F)C5CCN(CC6CCC(n7cc(NC(=O)c8coc(-c9ccnc(NCC%10CC%10)c9)n8)c(C(F)F)n7)CC6)CC5)cccc4c23)C(=O)N1 (stereo not drawn) [Hydrochloride of WX018] | 7.91 | 119 | 14.5 | 88.8
